Experimental findings from ChEMBL document CHEMBL4308824, “Design of Small Molecule Autophagy Modulators: A Promising Druggable Strategy” (J Med Chem, 2018) are described below.

Data set [1] is described as follows: Dissociation constant, pKa of compound. The data set is classed as physicochemical.
In the next data set the test system is BT-474. Description: Cytotoxicity against human BT474 cells assessed as reduction in cell viability after 48 hrs by MTT assay. Format: functional, cell-based. The settings on record: BT-474, 48 h.
Data set [2] deals with T1, Serine/threonine-protein kinase ULK2 (Homo sapiens, UniProt Q8IYT8).
T1 sequence (Q8IYT8 whole entry): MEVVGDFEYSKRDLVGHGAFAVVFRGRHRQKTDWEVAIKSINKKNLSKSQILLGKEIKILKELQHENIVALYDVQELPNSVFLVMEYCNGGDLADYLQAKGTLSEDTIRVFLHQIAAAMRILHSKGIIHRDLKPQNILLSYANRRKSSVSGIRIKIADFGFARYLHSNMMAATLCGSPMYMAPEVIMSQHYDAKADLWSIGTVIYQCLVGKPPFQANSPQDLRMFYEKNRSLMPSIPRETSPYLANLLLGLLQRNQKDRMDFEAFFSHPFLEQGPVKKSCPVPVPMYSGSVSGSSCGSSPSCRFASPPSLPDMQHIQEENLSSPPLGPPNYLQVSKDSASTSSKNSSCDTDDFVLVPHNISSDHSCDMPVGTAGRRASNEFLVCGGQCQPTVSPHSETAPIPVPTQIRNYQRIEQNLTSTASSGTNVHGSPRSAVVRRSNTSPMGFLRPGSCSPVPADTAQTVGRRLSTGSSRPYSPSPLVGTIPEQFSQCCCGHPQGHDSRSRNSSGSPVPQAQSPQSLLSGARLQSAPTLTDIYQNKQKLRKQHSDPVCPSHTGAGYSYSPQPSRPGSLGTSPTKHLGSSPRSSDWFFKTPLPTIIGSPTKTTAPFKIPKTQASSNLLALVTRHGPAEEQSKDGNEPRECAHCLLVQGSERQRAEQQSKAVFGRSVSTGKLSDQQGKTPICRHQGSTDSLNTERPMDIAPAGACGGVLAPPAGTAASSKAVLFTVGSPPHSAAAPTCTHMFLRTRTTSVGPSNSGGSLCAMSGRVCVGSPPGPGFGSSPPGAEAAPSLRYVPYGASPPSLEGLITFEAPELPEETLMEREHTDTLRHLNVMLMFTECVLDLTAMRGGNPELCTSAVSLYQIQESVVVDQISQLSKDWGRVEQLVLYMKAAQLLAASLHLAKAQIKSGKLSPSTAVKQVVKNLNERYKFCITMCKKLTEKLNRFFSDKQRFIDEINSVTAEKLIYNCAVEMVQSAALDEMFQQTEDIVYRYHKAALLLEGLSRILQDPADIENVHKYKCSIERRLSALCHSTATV
Put plainly: Inhibition of ULK2 (unknown origin).

The target of data set [3] is T1, Serine/threonine-protein kinase ULK2.
Data set [4] has as its target T2, Serine/threonine-protein kinase ULK1 (Homo sapiens, UniProt O75385).
T2 sequence (O75385 whole entry): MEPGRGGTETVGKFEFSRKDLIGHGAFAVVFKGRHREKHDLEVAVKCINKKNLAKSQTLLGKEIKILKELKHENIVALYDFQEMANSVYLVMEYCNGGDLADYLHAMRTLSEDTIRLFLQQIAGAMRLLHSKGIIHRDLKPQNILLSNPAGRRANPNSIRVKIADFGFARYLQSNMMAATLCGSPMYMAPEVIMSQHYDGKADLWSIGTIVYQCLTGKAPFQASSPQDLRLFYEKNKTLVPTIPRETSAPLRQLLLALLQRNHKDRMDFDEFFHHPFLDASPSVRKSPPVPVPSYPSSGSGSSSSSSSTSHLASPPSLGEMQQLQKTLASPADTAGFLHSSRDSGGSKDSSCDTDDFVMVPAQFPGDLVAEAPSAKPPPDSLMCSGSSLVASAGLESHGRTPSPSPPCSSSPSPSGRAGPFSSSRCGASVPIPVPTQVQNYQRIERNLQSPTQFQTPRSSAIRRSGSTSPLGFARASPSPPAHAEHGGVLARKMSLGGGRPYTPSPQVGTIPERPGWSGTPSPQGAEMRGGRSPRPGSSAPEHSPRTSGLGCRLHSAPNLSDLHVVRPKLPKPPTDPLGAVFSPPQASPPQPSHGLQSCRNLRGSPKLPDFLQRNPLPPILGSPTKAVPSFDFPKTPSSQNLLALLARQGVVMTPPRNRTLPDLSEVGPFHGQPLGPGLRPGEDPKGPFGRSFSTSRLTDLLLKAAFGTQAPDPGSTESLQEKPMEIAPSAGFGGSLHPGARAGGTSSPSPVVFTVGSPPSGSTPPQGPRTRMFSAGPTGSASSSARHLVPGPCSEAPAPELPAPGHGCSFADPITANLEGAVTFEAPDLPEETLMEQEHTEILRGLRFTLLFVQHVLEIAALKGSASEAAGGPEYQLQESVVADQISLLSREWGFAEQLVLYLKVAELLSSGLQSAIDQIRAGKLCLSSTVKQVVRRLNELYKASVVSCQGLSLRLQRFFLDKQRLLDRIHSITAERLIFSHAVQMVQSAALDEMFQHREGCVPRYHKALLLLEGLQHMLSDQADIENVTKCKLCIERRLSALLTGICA

For a further data set, the target named is mTORC2 (Homo sapiens, UniProt P42345). The data set is classed as protein-complex assay.
A further data set concerns the target mTORC1 (Homo sapiens, UniProt P42345). Format: protein-complex assay.
Data set [5] deals with AMP-activated protein kinase (AMPK) alpha-1/beta-1/gamma-1 (Homo sapiens, UniProt P54619+Q13131+Q9Y478). Put plainly: Activation of recombinant human AMPK alpha1/beta1/gamma1 (unknown origin) using SAMS peptide as substrate preincubated for 20 mins followed by substrate and gamma-[32]P-ATP addition and measured after 30 mins by liquid scintillation counting method. The data set is classed as protein-complex assay.
AMP-activated protein kinase (AMPK) alpha-1/beta-1/gamma-1, sequence (P54619 whole entry): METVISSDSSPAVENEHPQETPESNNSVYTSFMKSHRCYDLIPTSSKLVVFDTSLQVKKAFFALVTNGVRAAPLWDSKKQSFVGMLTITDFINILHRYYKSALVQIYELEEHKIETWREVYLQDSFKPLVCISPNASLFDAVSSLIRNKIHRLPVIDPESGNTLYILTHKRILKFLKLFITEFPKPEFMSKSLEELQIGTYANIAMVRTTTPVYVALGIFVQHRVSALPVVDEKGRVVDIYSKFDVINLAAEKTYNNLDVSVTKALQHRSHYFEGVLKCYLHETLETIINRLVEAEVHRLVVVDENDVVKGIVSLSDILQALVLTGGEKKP
AMP-activated protein kinase (AMPK) alpha-1/beta-1/gamma-1, sequence (Q9Y478 whole entry): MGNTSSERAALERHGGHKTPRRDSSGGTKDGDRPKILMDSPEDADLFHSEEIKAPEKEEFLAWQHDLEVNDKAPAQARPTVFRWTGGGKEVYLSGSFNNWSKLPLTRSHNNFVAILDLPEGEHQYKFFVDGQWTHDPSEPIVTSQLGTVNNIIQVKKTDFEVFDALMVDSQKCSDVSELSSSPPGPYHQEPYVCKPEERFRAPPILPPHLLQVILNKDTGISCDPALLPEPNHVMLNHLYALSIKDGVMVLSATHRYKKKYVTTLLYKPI
AMP-activated protein kinase (AMPK) alpha-1/beta-1/gamma-1, sequence (Q13131 whole entry): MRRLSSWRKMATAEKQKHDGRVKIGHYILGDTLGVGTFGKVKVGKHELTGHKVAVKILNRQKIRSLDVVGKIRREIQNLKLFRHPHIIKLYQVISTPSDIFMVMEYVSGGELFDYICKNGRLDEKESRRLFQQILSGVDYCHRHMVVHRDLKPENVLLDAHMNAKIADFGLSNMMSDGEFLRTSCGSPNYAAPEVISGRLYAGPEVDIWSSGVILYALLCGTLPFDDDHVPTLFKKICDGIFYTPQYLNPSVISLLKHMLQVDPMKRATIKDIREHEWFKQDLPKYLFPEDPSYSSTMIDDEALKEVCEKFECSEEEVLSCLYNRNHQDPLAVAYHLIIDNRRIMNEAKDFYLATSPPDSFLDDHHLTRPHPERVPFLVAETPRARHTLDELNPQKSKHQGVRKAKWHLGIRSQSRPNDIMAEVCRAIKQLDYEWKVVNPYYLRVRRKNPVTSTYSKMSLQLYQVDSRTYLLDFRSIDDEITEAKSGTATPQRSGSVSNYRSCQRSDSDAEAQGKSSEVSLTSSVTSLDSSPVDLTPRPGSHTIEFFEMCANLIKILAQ

The next data set has as its system MDA-MB-231. Description: Cytotoxicity against human MDA-MB-231 cells assessed as reduction in cell viability at 750 nM after 24 hrs by MTT assay relative to control. The data set is classed as functional.
Data set [6] concerns the target Phosphatidylinositol 4,5-bisphosphate 3-kinase catalytic subunit gamma isoform (Homo sapiens, UniProt P48736).
For data set [7], the target named is T3, Phosphatidylinositol 4,5-bisphosphate 3-kinase catalytic subunit delta isoform (Homo sapiens, UniProt O00329).
T3 sequence (O00329 whole entry): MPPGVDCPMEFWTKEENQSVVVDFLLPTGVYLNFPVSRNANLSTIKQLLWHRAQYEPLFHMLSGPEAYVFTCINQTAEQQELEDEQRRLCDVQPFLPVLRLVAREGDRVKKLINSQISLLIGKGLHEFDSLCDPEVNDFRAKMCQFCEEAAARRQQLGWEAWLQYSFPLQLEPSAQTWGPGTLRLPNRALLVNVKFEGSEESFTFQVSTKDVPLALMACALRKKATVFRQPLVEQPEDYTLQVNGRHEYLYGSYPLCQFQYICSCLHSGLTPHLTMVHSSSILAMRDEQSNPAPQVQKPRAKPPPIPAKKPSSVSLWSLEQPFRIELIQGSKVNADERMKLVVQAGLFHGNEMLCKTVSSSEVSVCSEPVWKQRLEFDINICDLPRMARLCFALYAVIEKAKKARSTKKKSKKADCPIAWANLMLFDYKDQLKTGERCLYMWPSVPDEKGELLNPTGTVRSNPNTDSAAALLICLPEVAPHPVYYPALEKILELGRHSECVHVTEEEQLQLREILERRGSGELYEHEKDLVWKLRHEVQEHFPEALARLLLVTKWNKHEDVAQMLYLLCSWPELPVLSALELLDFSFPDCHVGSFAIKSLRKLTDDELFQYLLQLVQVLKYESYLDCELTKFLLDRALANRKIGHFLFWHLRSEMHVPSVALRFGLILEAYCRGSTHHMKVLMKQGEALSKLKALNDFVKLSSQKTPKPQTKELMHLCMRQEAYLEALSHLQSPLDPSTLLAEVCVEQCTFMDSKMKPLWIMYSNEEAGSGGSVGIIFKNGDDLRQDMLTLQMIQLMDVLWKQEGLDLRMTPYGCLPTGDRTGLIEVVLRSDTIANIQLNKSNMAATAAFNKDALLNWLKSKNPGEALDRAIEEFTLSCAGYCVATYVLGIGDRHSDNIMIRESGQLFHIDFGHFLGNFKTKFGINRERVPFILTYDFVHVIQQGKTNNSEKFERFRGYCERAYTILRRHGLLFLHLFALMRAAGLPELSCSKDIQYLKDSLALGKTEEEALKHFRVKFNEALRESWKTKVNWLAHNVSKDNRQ
Put plainly: Inhibition of PI3K p110delta (unknown origin).

In data set [8] the target is Phosphatidylinositol 4,5-bisphosphate 3-kinase catalytic subunit alpha isoform (Homo sapiens, UniProt P42336). Description: Inhibition of PI3K p110alpha (unknown origin).
Phosphatidylinositol 4,5-bisphosphate 3-kinase catalytic subunit alpha isoform, sequence (P42336 whole entry, canonical isoform): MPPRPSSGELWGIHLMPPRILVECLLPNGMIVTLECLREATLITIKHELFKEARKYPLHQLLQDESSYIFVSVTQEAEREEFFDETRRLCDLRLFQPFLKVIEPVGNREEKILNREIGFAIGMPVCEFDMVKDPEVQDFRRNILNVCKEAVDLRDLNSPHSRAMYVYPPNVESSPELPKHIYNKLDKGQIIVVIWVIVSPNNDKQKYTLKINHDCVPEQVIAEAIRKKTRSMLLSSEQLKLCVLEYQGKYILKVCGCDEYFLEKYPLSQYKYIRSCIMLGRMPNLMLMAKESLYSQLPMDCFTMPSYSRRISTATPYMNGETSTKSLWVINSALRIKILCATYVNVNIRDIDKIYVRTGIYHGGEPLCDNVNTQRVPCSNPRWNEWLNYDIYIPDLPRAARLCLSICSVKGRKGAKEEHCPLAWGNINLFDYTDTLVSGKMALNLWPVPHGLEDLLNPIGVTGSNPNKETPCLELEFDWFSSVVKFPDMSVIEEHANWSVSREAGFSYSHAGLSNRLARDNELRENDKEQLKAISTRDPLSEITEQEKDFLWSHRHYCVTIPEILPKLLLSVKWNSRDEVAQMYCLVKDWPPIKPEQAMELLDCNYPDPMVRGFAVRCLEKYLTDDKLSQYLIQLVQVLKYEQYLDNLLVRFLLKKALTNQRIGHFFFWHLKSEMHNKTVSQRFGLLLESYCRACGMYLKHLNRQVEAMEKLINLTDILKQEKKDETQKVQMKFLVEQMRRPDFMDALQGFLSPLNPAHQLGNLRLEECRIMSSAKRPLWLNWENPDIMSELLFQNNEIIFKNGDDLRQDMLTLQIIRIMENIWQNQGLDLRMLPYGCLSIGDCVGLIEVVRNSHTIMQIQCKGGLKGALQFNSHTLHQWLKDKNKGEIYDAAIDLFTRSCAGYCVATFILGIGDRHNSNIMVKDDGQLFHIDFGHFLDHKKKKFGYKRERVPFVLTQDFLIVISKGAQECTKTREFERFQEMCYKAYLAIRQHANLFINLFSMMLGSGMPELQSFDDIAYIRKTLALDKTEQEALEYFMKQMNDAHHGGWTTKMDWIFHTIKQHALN
A further data set concerns CNE-2. Description: Antiproliferative activity against human CNE2 cells after 72 hrs by MTT assay. The data set is classed as functional, cell-based. The conditions noted are these: CNE-2, 72 h.
Data set [9] addresses Phosphatidylinositol 4,5-bisphosphate 3-kinase catalytic subunit beta isoform (Homo sapiens, UniProt P42338). Description: Inhibition of PI3K p110beta (unknown origin).
The subject of a further data set is U2OS. Put plainly: Inhibition of autophagy in human U2OS cells stably expressing tfLC3. The data set is classed as functional.
A short description of data set [10]: Cytotoxicity in human U2OS cells incubated for 24 to 48 hrs by CellTiter Glo assay. The conditions noted are these: read-out: LD50 (the source's name). Format: cell-based.

Counter-ions that a name gives are not always drawn.

Phosphatidylinositol 4,5-bisphosphate 3-kinase catalytic subunit beta isoform, sequence (P42338 whole entry, canonical isoform): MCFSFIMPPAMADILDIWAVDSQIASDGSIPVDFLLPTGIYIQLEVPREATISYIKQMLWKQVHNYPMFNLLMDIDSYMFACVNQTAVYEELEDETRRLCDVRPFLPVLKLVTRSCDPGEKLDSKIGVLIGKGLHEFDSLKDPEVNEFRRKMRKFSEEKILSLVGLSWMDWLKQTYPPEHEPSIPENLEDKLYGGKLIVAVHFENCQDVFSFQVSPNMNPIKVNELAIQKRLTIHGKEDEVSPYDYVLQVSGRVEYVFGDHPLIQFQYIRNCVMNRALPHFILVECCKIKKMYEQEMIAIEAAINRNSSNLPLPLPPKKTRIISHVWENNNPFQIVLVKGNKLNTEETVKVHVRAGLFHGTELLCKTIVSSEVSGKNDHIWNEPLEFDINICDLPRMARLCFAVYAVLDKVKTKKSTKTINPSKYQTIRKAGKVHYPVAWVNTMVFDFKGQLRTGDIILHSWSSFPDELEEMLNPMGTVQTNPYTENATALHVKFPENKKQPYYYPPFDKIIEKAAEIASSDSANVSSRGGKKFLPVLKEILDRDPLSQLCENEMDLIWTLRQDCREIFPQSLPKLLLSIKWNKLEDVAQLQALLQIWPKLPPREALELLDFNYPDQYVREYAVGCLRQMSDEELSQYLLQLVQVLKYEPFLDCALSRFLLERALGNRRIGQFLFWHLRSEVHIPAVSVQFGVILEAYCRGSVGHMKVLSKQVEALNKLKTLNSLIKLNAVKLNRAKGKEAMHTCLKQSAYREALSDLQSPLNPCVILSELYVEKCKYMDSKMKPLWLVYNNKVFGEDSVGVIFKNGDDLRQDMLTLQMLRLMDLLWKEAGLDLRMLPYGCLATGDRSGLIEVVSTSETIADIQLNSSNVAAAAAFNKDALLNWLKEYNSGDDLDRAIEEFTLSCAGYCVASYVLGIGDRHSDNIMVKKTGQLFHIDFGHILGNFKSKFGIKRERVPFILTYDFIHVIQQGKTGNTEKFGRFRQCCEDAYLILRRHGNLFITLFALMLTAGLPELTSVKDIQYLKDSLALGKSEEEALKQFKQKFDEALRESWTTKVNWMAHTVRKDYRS
Phosphatidylinositol 4,5-bisphosphate 3-kinase catalytic subunit gamma isoform, sequence (P48736 whole entry, canonical isoform): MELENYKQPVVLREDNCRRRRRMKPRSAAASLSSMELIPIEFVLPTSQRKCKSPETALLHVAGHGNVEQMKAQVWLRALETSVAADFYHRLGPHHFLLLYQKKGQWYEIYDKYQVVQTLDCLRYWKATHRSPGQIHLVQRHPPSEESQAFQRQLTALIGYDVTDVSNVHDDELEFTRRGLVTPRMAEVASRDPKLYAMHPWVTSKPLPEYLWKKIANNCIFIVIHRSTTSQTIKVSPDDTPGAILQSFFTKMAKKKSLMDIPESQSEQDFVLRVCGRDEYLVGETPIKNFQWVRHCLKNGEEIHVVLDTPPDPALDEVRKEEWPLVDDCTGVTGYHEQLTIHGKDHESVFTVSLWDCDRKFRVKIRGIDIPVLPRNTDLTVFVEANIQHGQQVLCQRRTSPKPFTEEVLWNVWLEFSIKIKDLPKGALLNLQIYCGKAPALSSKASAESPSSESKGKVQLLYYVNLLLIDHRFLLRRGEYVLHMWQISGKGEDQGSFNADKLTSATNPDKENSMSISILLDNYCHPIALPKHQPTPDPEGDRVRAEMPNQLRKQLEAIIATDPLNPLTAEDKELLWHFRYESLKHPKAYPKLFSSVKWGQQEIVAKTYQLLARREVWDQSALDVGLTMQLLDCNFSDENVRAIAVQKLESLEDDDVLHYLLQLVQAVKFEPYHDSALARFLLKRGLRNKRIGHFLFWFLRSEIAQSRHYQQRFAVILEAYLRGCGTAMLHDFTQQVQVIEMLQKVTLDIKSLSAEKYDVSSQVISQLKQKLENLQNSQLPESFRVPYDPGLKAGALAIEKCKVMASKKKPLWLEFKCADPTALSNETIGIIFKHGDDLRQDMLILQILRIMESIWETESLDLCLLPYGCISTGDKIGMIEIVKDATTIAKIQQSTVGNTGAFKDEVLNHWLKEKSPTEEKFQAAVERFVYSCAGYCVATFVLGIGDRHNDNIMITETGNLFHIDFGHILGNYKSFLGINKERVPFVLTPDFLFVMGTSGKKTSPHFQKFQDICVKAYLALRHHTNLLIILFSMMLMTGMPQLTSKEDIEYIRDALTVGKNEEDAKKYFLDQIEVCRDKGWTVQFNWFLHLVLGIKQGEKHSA

`CN1CCN(Cc2cc(CNC3(c4ccccc4F)CCCC3)ccc2O)CC1` returned a pKa in [1] of more than 7.5. In addition, the IC50 with BT-474 was 23.5 to 30.1 µM.
In turn, `CNC(=O)c1ccccc1Oc1nc(Nc2cc(OC)c(OC)c(OC)c2)ncc1Br` displayed an IC50 in data set [2] of 0.011 µM.
With `CN1CCc2cc(Nc3ncc(C4CC4)c(NCCCNC(=O)C4CCC4)n3)ccc2C1`, the IC50 stood at 0.0011 µM in [3] and 0.0029 µM in [4].
Consider `O=C(/C=C/c1ccc2c(c1)OCO2)CC1(O)C(=O)Nc2ccccc21` (centres undefined), for which the IC50 on mTORC2 and against mTORC1 was 0.001 to 0.005 µM throughout.
`COC(=O)Nc1ccc(-c2nc(N3CCOCC3)c3cnn(C4CCN(C(=O)OC)CC4)c3n2)cc1`: the IC50 against mTORC2 and on mTORC1 was 0.005 to 0.009 µM in each case.
On to `CC1(CN2C(=O)S/C(=C\c3ccc(NS(=O)(=O)c4ccc([N+](=O)[O-])c(C(F)(F)F)c4)cc3)C2=O)CCCCC1`, for which the EC50 in [5] came to 0.3 µM.
`CCN(CC)CCCC(C)Nc1ccnc2cc(Cl)ccc12` (centres undefined) [CHLOROQUINE]: the IC50 in the data set with BT-474 was more than 1000 µM.
In the case of `COC(=O)Nc1nc2cc(C(=O)c3ccc(F)cc3)ccc2[nH]1` [FLUBENDAZOLE], the Activity in the data set with MDA-MB-231 is 50%.
For `c1cnc2ccc(Nc3nc(NC4CC4)c4nc[nH]c4n3)cc2c1` [PUQUITINIB MESYLATE DIHYDRATE], the IC50 was found to be 0.0897 µM in data set [6]; 0.0028 µM in data set [7]; 0.767 µM in [8]; 5.2 µM in the data set on CNE-2; 0.699 µM in data set [9].
Take `CCN(CC)CCCC(C)Nc1c2ccc(Cl)cc2nc2ccc(OC)cc12` (centres undefined) [QUINACRINE]: the EC in the data set with U2OS was determined as 0.2 µM. In addition, the CC50 in data set [10] worked out at 2.5 µM.
